15 molecules from US10308617B2, “Triazole benzamide derivatives and the compositions and methods of treatment regarding the same” (An2H Discovery Limited, priority 2016, dated 2019) can be followed below.

The target in this assay is T1, Parkin ligase (Homo sapiens, UniProt O60260).
T1 sequence (O60260 1-465): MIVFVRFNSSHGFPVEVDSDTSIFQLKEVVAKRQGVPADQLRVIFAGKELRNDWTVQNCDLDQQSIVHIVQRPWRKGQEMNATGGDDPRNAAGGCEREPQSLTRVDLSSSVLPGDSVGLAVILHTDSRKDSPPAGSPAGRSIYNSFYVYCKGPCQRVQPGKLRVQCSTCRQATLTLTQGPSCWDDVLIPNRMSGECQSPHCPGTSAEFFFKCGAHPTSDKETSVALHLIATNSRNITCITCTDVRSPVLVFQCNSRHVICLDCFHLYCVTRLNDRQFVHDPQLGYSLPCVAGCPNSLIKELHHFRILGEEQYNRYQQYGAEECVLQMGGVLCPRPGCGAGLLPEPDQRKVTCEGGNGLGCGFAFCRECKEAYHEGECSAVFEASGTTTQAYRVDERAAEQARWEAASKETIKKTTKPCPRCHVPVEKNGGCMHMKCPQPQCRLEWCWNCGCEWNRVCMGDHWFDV
The experiment in a line: Activity-Based Probe Assay using an Ubiquitin vinyl sulfone probe (TR-FRET). The format is biochemical. To be noted: Parkin activation, HA-Ub-VS probe, heat activated Parkin; read-out: Probe Assay EC50 (μM) [Example 2]. The procedure: An Ubiquitin vinyl sulfone probe can be used that irreversibly binds to the active site cysteine of Parkin ligase. Covalent attachment of the probe to the Parkin can be monitored by TR-FRET. Candidate activator compounds can be identified by increasing the activity of Parkin ligase due to an increase in TR-FRET signal. Screening for activating compounds can be distinguished from the controls as follows: • 100% activation signal=Heat activated Parkin+100 nM control activator in DMSO. • 0% activation signal=Heat activated Parkin+DMSO only. • Parkin activators can be identified by an increase of the 0% activation signal TR-FRET signal.
• Assay Plate: White 384 well plate (Corning 3572) • Enzyme: Parkin-His tagged 203 μM (10.5 mg/ml) • Probe: Ubiquitin vinyl-sulfone (HA-Ub-VS Boston Biochem U-212) • DMSO: DMSO (Sigma cat # D4540-100ML) • Reaction Buffer: 50 mM HEPES (pH 8.5), 150 mM NaCl, 0.01% Tween 20, 0.1% BSA • Detection Buffer: 50 mM HEPES (pH 8.5), 150 mM NaCl, 0.01% Tween 20, 0.1% BSA, 800 mM KF • Detection Reagent A: 2.6 nM Anti-6HIS-Eu cryptate and 40 nM Anti-HA-XL665 in detection buffer • Eu cryptate: Anti-6HIS-Eu cryptate (CisBio 61HISKLA) • XL665: Anti-HA-XL665 (CisBio 610HAXLA) Enzyme Reaction (15 min pre incubation Parkin with activator only) • Parkin: 40 nM • HA-Ub-VS Probe: 70 nM • Activator/DMSO: 2× Activator/2% DMSO • Reaction time: 60 minutes • Temperature: 22° C. • Total volume: 10 μl reaction Detection Reaction • Take 10 μl of Enzyme Reaction above and add 10 μl detection Reagent A under the following conditions: • Reaction time: 60 minutes • Temperature: 22° C. • Total volume: 20 μl
Assay procedure (Using HP D-300 compound dispenser and Bravo for the operation): • 1) Heat activate Parkin in reaction buffer (500 μl/1.5 ml tube: Eppendorf Thermomixer 5 minutes, 400 rpm at 58° C. and put on ice until needed). • 2) Load assay plate wells with 4.8 μl 84.5 nM Parkin in reaction buffer by use of Bravo. • 3) Deliver 0.2 μl 200× activator candidates in DMSO by use of HP D-300 compound dispenser. Highest 200× concentration=[…] and then twofold dilutions. • 4) Spin 1000 rpm, 2 minutes, at room temp. • 5) Incubate plate for 15 minutes at room temp. • 6) Add 5 μl 140 nM HA-Ub-VS Probe in reaction buffer by use of Bravo. • 7) Spin 1000 rpm, 2 minutes, at room temp. • 8) Incubate plate for 60 minutes at room temp. • 9) Add 10 μl 2.6 nM Anti-6HIS-Eu cryptate and 40 nM Anti-HA-XL665 in detection buffer. • 10) Spin 1000 rpm, 2 minutes, at room temp. • 11) Incubate plate for 60 minutes at room temp. • 12) Read plates on Perkin Elmer Envision instrument with the following parameters: • LANCE dual laser protocol loaded into the Envision® software • Top Mirror: LANCE/DELFIA Duel/Bias (Bar code 446) • Emission Filter: APC 665 EM (Bar code 205) • 2nd Emission Filter: Europium 615 EM (Bar code 203) • Read 655 nm (channel 1) and 615 nm (channel 2) wavelengths on Envision®
Data Analysis: The Data can be read in CSV files. There are two tables in those CSV files, which are the values of 655 nm (channel 1) and 615 nm (channel 2) wavelengths respectively. The data is converted to an HTRF Ratio=(Channel 1/Channel 2)*10,000
The average of all the 0 uM controls (DMSO only)=BKGD (Background—0% activation). Subtract BKGD from each HTRF Ratio value=HTRF-BKGD. The average of all the […] 100 nM control activator in DMSO controls=Max (100% activation). The following equation is then used to calculate % Activation for each well/candidate as follows: % Activation=(HTRF-BKGD/Max)*100.
Graphpad Prisim was used with Transform X values: X=Log(X) and nonlinear regression (dose-response-stimulation): Log(agonist) vs Response—variable slope (four parameters) with constrains set to Bottom=0 and Top=100.
The Activity-Based Probe Assay was performed with various compounds in Tables 1-3.
As a reminder, the EC50 is the concentration at which the effect is half-maximal. Consider `Cc1ccccc1C(=O)Nc1nc(NC(=O)c2ccccc2F)n(-c2ccccc2)n1` [Compound E3], for which the EC50 is above 100 µM. The same measure for `Cc1ccccc1C(=O)Nc1nc(N)n(-c2ccccc2)n1` [Compound N3]: above 100 µM. In the case of `Cc1cccc(C(=O)Nc2nc(NC(=O)c3cccc(C)c3)n(-c3ccccc3)n2)c1` [Compound F3] it was above 100 µM; in that of `Cc1ccccc1C(=O)Nc1nc(NCCc2ccccc2)n(-c2ccccc2)n1` [Compound L3], above 100 µM. Consider `Cc1ccccc1C(=O)Nc1nc(NC(=O)c2ccccc2C)n(C2CCCCC2)n1` [Compound J3], for which the EC50 is 37 µM. With `Cc1ccccc1C(=O)Nc1nc(NC(=O)c2ccccc2C)n(-c2ccc(F)cc2)n1` [Compound O3], the EC50 was above 100 µM. The same measure for `Cc1ccccc1C(=O)Nc1nc(NC(=O)c2ccccn2)n(-c2ccccc2)n1` [Compound P3]: 9 µM; for `Cc1ccccc1C(=O)Nc1nc(-c2ccncn2)nn1-c1ccccc1` [Compound G3]: 74 µM.

As for `Cc1ccccc1C(=O)Nc1nc(NC(=O)c2ccccc2C)n(C(C)(C)C)n1` [Compound D3], the EC50 is above 100 µM. As for `Cc1ccccc1C(=O)Nc1nc(NC(=O)c2ccncc2)n(-c2ccccc2)n1` [Compound M3], the EC50 was above 100 µM.

On to `Cc1ccccc1C(=O)Nc1nc(NC(=O)c2ccccc2C)n(-c2ccncc2)n1` [Compound B3], for which the 50% effective concentration (EC50) is above 100 µM.

Regarding `Cc1ccccc1C(=O)Nc1nc(NC(=O)c2ccccn2)n(-c2ccccc2)n1` [Compound A3], the 50% effective concentration (EC50) was above 100 µM.

On to `Cc1ccccc1C(=O)Nc1nc(NC(=O)c2ccccc2C)n(-c2cccnc2)n1` [Compound Y2], for which the half-maximal effective concentration (EC50) was above 100 µM. As to `Cc1ccccc1C(=O)Nc1nc(NC(=O)c2ccccc2C)n(CC(C)C)n1` [Compound I3], the EC50 is above 100 µM. Turning to `COc1ccccc1C(=O)Nc1nc(NC(=O)c2ccccc2C)nn1-c1ccccc1` [Compound K3], the 50% effective concentration (EC50) was 17 µM.
